# Assay results reported in paper PMC8279857, “In Vitro and In Silico Evaluation for the Inhibitory Action of O. basilicum Methanol Extract on α-Glucosidase and α-Amylase” (Evidence-based Complementary and Alternative Medicine : eCAM, 2021).
# Target: T1, intestinal α-glucosidase
# T1 construct: called intestinal; pNPG assay after Kim et al; 5KZW (docking only) is not the assayed enzyme
# Experiment: p-nitrophenol release from pNPG, absorbance […] nm
# Format: biochemical
# Settings: p-nitrophenyl α-D-glucopyranoside (250 μL of 20 mM), sodium phosphate pH 6.9, 37°C, 10 min preincubation
structure (smiles),measurement,value
O=C(O)/C=C/c1ccc(O)c(O)c1 [caffeic acid],IC50,1050 ± 250 µM
